Laboratory results taken from patent publication US9549928B2, “Muscarinic agonists as enhancers of cognitive flexibility” (THE UNIVERSITY OF TOLEDO, priority 2011, dated 2017).

Columns and labels:
Assay type in all cases: in vivo, rat
[1] = system: male Long-Evans rats; assay: Visual cue discrimination acquisition and switch to place discrimination (strategy switching); settings: 0.003 mg/kg i.p. before switch phase; vs controls
Experimental: In a separate experiment, the effect of CDD-0102A on initial learning of a visual cue strategy and switch to a place strategy was determined. All other aspects of the testing procedure were as described above. The treatment groups in this experiment were as follows: 1) saline—saline (n=8); 2) saline—CDD-0102A 0.003 mg/kg (n=7); 3) saline—CDD-0102A 0.03 mg/kg (n=7); 4) vehicle—CDD-0102A 0.1 mg/kg (n=8); 5) CDD-0102A 0.03 mg/kg-saline (n=7); or 6) CDD-0102A 0.01 mg/kg-saline (n=8).
These same types of errors were calculated in a similar manner for the experiment in which rats first learned a visual cue strategy and then switched to a place strategy.
In the spontaneous alternation task, a one-way analysis of variance was used to identify differences in percent alternation scores and number of arm entries across groups. Newman-Keuls post-hoc tests were used to compare treatment and control group measures. In the discrimination learning tests, one-way analyses of variance were used to identify differences in trials to criterion for acquisition and strategy switching. Separate analyses of variance were carried out to determine group differences in perseverative, regressive, and never-reinforced errors. Newman-Keuls post-hoc tests were used to compare differences between treatment groups.

[2] = system: normal rats; assay: Example 2: attentional set-shifting model, place strategy shifted to visual cue strategy; settings: injection before acquisition (FIG. 7A)
Text: The beneficial effects of CDD-0102A in the rat model of cognitive flexibility are among the strongest evidence providing the scientific rationale for CDD-0102A in the treatment of PSP. The inventors have developed several models of cognitive flexibility, including the model of attentional set shifting involving an extradimensional set shift described here. The model involves a place-visual cue task. Rats first learned to use a place strategy—always to enter the same arm to receive a food reward. Criterion was set at 10 consecutive correct trials. The following day, rats had to inhibit the place strategy and to learn a new visual cue strategy to receive the reward. Local visual cues in the maze arms included a black board in one arm and white board in the other arm. The cues were switched between the choice arms randomly across trials so the same cue was not always in the same location. The rat had to choose the arm that contained a particular color cue (e.g., black) in order to receive the reward. The criterion again was set at 10 consecutive correct trials.
Rats received either saline (N=3) or CDD-0102A at various doses 30 minutes prior to testing.

[3] = system: male Long-Evans rats; assay: Delayed spontaneous alternation in a 4-arm cross maze (30 second delay); settings: i.p.
Experimental: For behavioral studies, male Long-Evans rats were purchased from Harlan (Indianapolis, Ind.) weighing between 325-375 g. Rats were individually housed in plastic cages (20.3 cm×20.3 cm×41.9 cm) in an environmentally controlled room (23° C., 30% humidity) on a 12 h:12 h light:dark cycle (lights on at 7:00 am). After at least four days to acclimate to the colony room, rats were handled for 10 minutes per day for four days to adjust to being handled during training and testing. At the same time rats began to be handled, rats were also food restricted to reduce their weight to 85-90% of their ad libitum weight. Rats had free access to water throughout the experiment. Animal care and use conformed to the guidelines of the National Institutes of Health Guide for the Care and Use of Laboratory Animals, and was approved by the Institutional Laboratory Animal Care and Use Committee at the University of Illinois at Chicago.
All behavioral testing occurred in a cross maze made of translucent black acrylic. Each arm measured 55 cm long, 10 cm wide, and 15 cm in height. A circular food well, with a diameter of 3.2 cm and a depth of 1.6 cm was placed 3 cm from the end of each arm. […]
In this test, rats were placed in the testing room 5 minutes prior to behavioral testing. […] The number and sequence of arm entries was recorded. An arm entry was recorded when all four paws entered an arm. […]

[4] = system: male Long-Evans rats; assay: Salivation studies, salivary output over 60 minutes after i.p. administration
Experimental: For studies of salivation, male Long-Evans rats were purchased from Charles River Laboratories (Wilmington, Mass.) weighing between 250-425 g. Animals were kept in a vivarium on a 12-h light/dark cycle. Humidity was maintained at 30-70%, and temperature was maintained at 20-24° C. All procedures were approved by the Institutional Animal Care and Use Committee at Mithridion, Inc.
Salivation was quantified in rats following i.p. administration of CDD-0102A. Rats were first anesthetized with isoflurane, and then dosed with CDD-0102 by i.p. injection. Anesthesia was maintained by a nose cone that delivered 1.5-2.5% isoflurane in 500 ml/minute of oxygen. CDD-0102A was dissolved in phosphate-buffered saline and the injection volume was 2 ml/kg. The hind limbs of anesthetized animals were taped to the top of an incline (25° grade) so that the animal was oriented with its head near the bottom of the slope and its dorsal-surface oriented upward. Body temperature was monitored by a rectal thermometer, and maintained at 36-38° C. by a heating pad. The animal's nose was inserted into a nose cone for maintaining anesthesia while the entire mouth remained outside this nose cone. Pre-weighed filter paper (approximately 5×5 cm) was placed underneath the mouth to absorb the draining saliva. After 5 minutes, the saliva-wetted filter paper was weighed and replaced with fresh, pre-weighed filter paper. Total salivary output was calculated by subtracting the mass of the filter paper from the combined mass of paper plus saliva as collected over 60 minutes.

[5] = system: normal rats; assay: Example 2: attentional set-shifting model, visual cue strategy shifted to place strategy; settings: injection before acquisition (FIG. 8A)
Text: The whole experiment was repeated with the rats learning first a visual cue strategy and then being switched to a place strategy.

[6] = system: male Long-Evans rats; assay: Place discrimination acquisition and switch to visual cue discrimination (strategy switching); settings: i.p.
Experimental: A different group of rats was used for the discrimination learning and strategy switching tests from that used in the delayed spontaneous alternation test. Prior to testing, rats were food-restricted to maintain their weight at 85% of their free-feed weight, handled and trained in the maze to obtain half piece of Froot Loops® cereal in the cross-maze.
Following training, each rat was tested across two consecutive days. In the first experiment each rat had to learn a place discrimination. Rats were started in a pseudorandom manner from one of two different arms such that any start arm was not used more than 3 consecutive trials. The two start arms (“east” and “west”) were always opposite each other. A black plastic block was placed in the entrance of the maze arm opposite to that of the start arm, giving the maze a T-shape. Thus, the same two choice arms were used no matter what start arm was used. A rat was started in the stem arm with only one of the two choice arms baited. In the acquisition phase, one choice arm or place was designated the reinforced arm which contained a ½ piece of cereal reinforcement on each trial. In this phase, a rat was required to enter the reinforced arm containing a ½ piece of cereal. […]
In the switch phase of each experiment, the errors committed were separated into different categories and analyzed. […]

In the case of `CCc1noc(C2CN=CNC2)n1` (stereo not shown) [CDD-0102A, 5-(3-ethyl-1,2,4-oxadiazol-5-yl)-1,4,5,6-tetrahydropyrimidine], the “trials to criterion, switch to place strategy” value [1] is reported as “no significant effect”, the “acquisition of the place-cue strategy” value [2] is reported as “no effect” and the “dose at which significant improvement in memory function was observed” value [3] is reported as no less than 0.1 mg/kg. For the same molecule, the “salivary output over 60 minutes” value ([4]; 0.1 mg/kg i.p.) was “no salivation”, the “salivary output over 60 minutes” value ([4]; 5 mg/kg i.p. (most salivation), mean ± SEM) was 4,685±449 μl and the “salivary output over 60 minutes” value ([4]; 10 mg/kg i.p., compared with 5 mg/kg dose, P>0.5) was “not significantly different”. The “separation between dose enhancing place-visual cue task (0.03 mg/kg ip) and dose producing half-maximum salivation” value ([4]; efficacious dose lower than dose producing half-maximum salivation) was “approximately 100 fold”, the “lowest dose that produced salivation” value ([4]; i.p.) was 0.3 mg/kg and the “acquisition of the visual-cue strategy” value [5] was “no effect”. The “dose at which effect on strategy switching is maximal” value [6] was 0.03 mg/kg.
